The values below come from publication PMC9415015, “CK2 Inhibition and Antitumor Activity of 4,7-Dihydro-6-nitroazolo[1,5-a]pyrimidines” (Molecules, 2022).

Read-outs that look alike come from different tables or passages of the source.

By IC50 is commonly meant the concentration that gives 50% inhibition. As a reminder, the inhibition is the drop in the measured response relative to a control, in per cent.

One assay concerns Hos cells. The assay can be described thus: MTT test, osteosarcoma cells. It counts as cell-based, human. To be noted: for Cytotoxicity index IC50 ± SE, Hos: MTT, 72 h incubation; for Selectivity ratio SR (HOS): normal/cancer cell (Hek-293 vs Hos). As for the experimental part: (§1) The studies were carried out on cultured cells of human glioblastoma (A-172, ATCC CRL 1620), human osteosarcoma (Hos, ATCC CRL 1543), human embryonic rhabdomyosarcoma (Rd, ATCC CRL 136), and human embryonic kidney 293 cells (Hek-293, ATCC CRL 1573) obtained from the Shared research facility “Vertebrate cell culture collection” (Institute of Cytology RAS, Saint-Petersburg, Russia). The cells were cultured using DMEM / F-12 medium containing 10% fetal bovine serum at 37°C, 5% CO2, and 98% humidity. Subculturing was performed using 0.25% trypsin solution when the culture reached ≥90% confluency.
(§2) The compounds were dissolved in DMSO. The solutions were diluted with DMEM/F-12 culture medium with 10% fetal bovine serum to the studied concentrations: 8, 16, 32, 64, 128, 256, 512, and 1024 µM. […] Cisplatin (cPt) was used as a positive control.
(§3) Cells were seeded in 96-well plates at a concentration of 4 × 10^3 cells per well. After 24 h, test compounds were added to the wells in a given concentration range. Then the cells were incubated for 72 h, after which a solution of MTT (3-(4,5-dimethyl-2-thiazolyl)-2,5-diphenyl-2H-tetrazolium bromide) was added to the cultures at 20 µL (5 mg/mL) to the well. After 2.5 h, the medium was removed from the wells and 200 µL of a mixture of DMSO/i-PrOH 1/1 was added. Optical density was measured on a plate spectrophotometer at a wavelength of 570 nm.
(§4) Statistical data processing was carried out in the RStudio program (Version 1.4.1106 © […] RStudio, PBC, Boston, MA, USA) using the R package (version 4.1.2). The cytotoxicity index (IC50) was calculated by plotting dose–response curves using the “drc” package.

The next assay deals with Hek-293 cells. As to the kind of experiment: MTT test, human embryonic kidney cells. It counts as cell-based. The following applies: 72 h incubation. As for the experimental part: as §1, §2, §3, §4
In general terms: Formazan colour is commonly taken as a measure of viable cells.

The next assay deals with A-172 cells. The assay can be described thus: MTT test, glioblastoma cells. To be noted: for Cytotoxicity index IC50 ± SE, A-172: MTT, 72 h incubation; for Selectivity ratio SR (A-172): normal/cancer cell (Hek-293 vs A-172). It counts as cell-based, human. On the procedure: as §1, §2, §3, §4
The target of a further assay is T1, human recombinant CK2α1 (Homo sapiens, UniProt P68400).
T1 construct: purchased Promega V4482
T1 sequence (P68400 whole entry): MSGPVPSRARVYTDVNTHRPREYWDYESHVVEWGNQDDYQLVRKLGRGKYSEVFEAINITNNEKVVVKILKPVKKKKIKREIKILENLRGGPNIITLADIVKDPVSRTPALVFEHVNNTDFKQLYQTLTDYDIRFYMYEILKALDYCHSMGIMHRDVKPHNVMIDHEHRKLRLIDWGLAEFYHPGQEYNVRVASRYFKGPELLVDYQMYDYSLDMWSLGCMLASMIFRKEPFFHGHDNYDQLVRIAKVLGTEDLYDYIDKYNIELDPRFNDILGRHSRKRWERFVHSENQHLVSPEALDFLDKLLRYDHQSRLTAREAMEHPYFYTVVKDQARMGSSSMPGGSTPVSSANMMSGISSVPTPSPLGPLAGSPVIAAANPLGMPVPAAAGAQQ
As to the kind of experiment: CK2 ADP-Glo kinase assay. The assay is classed as biochemical. The following applies: for Effect on CK2 activity in initial screening (in words): initial screening at 50 μM; for inhibition at 50 µM: read-out: CK2 Inhibition at 50 μM, m ± SD (%). As for the experimental part: Kinase activity was determined using the enzyme system CK2α1 (Promega V4482, Madison, WI, USA) and the ADP-Glo^TM kit (Promega V9101, Madison, WI, USA) in white 96-well plates (Nunc U96 Microwell 267350, Denmark). The reaction was carried out using 50 ng/well of N-GST labeled human recombinant CK2α1, 0.1 µg/µL bovine casein as a substrate, 10 μM ATP in 40 mM Tris buffer solution (pH 7.50) containing 20 mM MgCl2, 0.1 mg/mL of BSA, and 50 μM of DTT. Test compounds were added to 1.25% DMSO (final concentration 0.25%) and preincubated with kinase for 10 min. The reaction was carried out for 60 min at 25 °C in a thermostatically controlled PST-60HL shaker (Biosan. […], Latvia). ATP-dependent luminescence was measured at an integration time of 1000 ms using the Infinite M200 PRO microplate reader (Tecan. Austria). The ATP-competitive inhibitor Staurosporin (CAS 62996–74-1, Alfa Aesar J62837, 99+%) was used as a positive control. The experiments were performed in two parallels.
In general terms: In ADP-Glo the light output rises with the ADP produced.

For another assay, the system named is Rd cells. The assay can be described thus: MTT test, embryonic rhabdomyosarcoma cells. The assay is classed as cell-based, human. The following applies: for Cytotoxicity index IC50 ± SE, Rd: MTT, 72 h incubation; for Selectivity ratio SR (RD): normal/cancer cell (Hek-293 vs Rd). On the procedure:
as §1, §2, §3, §4

The mark [1] stands for this setting: dose-response study of CK2 inhibition.
The mark [2] stands for this setting: 50 μM compound, 10 μM ATP, n.a. = not active.
Where [3] appears, read: dose-response study, 10 μM ATP, read-out: CK2 IC50.

For the molecule `CCC1=C([N+](=O)[O-])C(c2ccc([N+](=O)[O-])cc2)n2ncc(C#N)c2N1` (centres unmarked) [Compound 5h, 3-Cyano-5-ehtyl-6-Nitro-7-(4ʹ-nitrophenyl)-4,7-dihydropyrazolo[1,5-a]pyrimidine], the “Cytotoxicity index IC50 ± SE, Hos” value in the assay with Hos cells was found to be 234.97 ± 25.80 µM. Further, the “Cytotoxicity index IC50 ± SE, Hek-293” value with Hek-293 cells was 153.47 ± 12.35 µM. Besides, the “Cytotoxicity index IC50 ± SE, A-172” value in the assay on A-172 cells came to 323.41 ± 22.70 µM. For the same molecule, at human recombinant CK2α1, the IC50 worked out at 59.5 µM, the “Effect on CK2 activity in initial screening (in words)” value (shortened to “Effect on CK2 activity”) is “Moderate inhibition” and the inhibition at 50 µM is 54.8 ± 0.87%. Moreover, the “CK2 inhibitory potency in dose-response study (in words)” value (from here on “CK2 inhibitory potency”) on human recombinant CK2α1 (dose-response study) is recorded as “micromolar CK2 inhibitors”. Further, on human recombinant CK2α1 (setting [1]), the “Hill Coefficient” value is recorded as −1.566. The “Cytotoxicity index IC50 ± SE, Rd” value in the assay with Rd cells stood at 378.59 ± 20.39 µM.
In the case of `CCC1=C([N+](=O)[O-])C(c2cccs2)n2ncc(C#N)c2N1` (centres unmarked) [Compound 5k, 3-Cyano-5-ethyl-6-nitro-7-(thiophen-2-yl)-4,7-dihydropyrazolo[1,5-a]pyrimidine], the “Cytotoxicity index IC50 ± SE, Hos” value with Hos cells amounted to 77.32 ± 3.06 µM. Moreover, the “Cytotoxicity index IC50 ± SE, Hek-293” value in the assay on Hek-293 cells is on record as 107.57 ± 11.10 µM. The “Cytotoxicity index IC50 ± SE, A-172” value in the assay on A-172 cells is 110.23 ± 2.97 µM. Also, the inhibition at 50 µM on human recombinant CK2α1 (setting [2]) is 66.8 ± 7.97%. The “CK2 inhibitory potency” value at human recombinant CK2α1 (dose-response study) is reported as “micromolar CK2 inhibitors”. In addition, the “Hill Coefficient” value on human recombinant CK2α1 (setting [1]) was −1.183. Moreover, the half-maximal inhibitory concentration (IC50) on human recombinant CK2α1 (setting [3]) was 52.3 µM. The “Effect on CK2 activity” value at human recombinant CK2α1 was “Moderate inhibition”. Further, the “Cytotoxicity index IC50 ± SE, Rd” value with Rd cells was 89.43 ± 10.46 µM.
As to `CSc1nn2c(c1C#N)NC=C([N+](=O)[O-])C2c1ccccc1` (centres unmarked) [Compound 5l, 3-Cyano-2-methylthio-6-nitro-7-phenyl-4,7-dihydropyrazolo[1,5-a]pyrimidine], the “Cytotoxicity index IC50 ± SE, Hos” value in the assay on Hos cells is reported as 92.91 ± 3.91 µM. Also, in the assay on Hek-293 cells, the “Cytotoxicity index IC50 ± SE, Hek-293” value was 162.30 ± 9.95 µM. Moreover, the “Cytotoxicity index IC50 ± SE, A-172” value in the assay with A-172 cells is on record as 77.79 ± 4.02 µM. Besides, the inhibition at 50 µM on human recombinant CK2α1 (setting [2]) amounted to 48.4 ± 4.48%. Besides, at human recombinant CK2α1 (dose-response study), the “CK2 inhibitory potency” value is on record as “micromolar CK2 inhibitors”. On human recombinant CK2α1 (setting [1]), the “Hill Coefficient” value is −2.947. Moreover, on human recombinant CK2α1 (setting [3]), the IC50 came out at 57.2 µM. Further, the “Effect on CK2 activity” value at human recombinant CK2α1 is recorded as “Moderate inhibition”. Besides, the “Cytotoxicity index IC50 ± SE, Rd” value with Rd cells is given as 124.66 ± 6.80 µM.
On to `CSc1nn2c(c1C#N)NC(C)=C([N+](=O)[O-])C2c1ccccc1` (centres unmarked) [Compound 5m, 3-Cyano-5-methyl-2-methylthio-6-nitro-7-phenyl-4,7-dihydropyrazolo[1,5-a]pyrimidine], for which, in the assay with Hos cells, the “Cytotoxicity index IC50 ± SE, Hos” value is 18.54 ± 1.79 µM and the “Selectivity ratio SR (HOS)” value amounted to 11.4. In the assay on A-172 cells, the “Cytotoxicity index IC50 ± SE, A-172” value worked out at 13.36 ± 0.98 µM and the “Selectivity ratio SR (A-172)” value is on record as 15.8. For the same molecule, the “Effect on CK2 activity” value on human recombinant CK2α1 is listed as “paradoxically enhance CK2 activity”. In the assay with Rd cells, the “Cytotoxicity index IC50 ± SE, Rd” value amounted to 27.52 ± 2.77 µM and the “Selectivity ratio SR (RD)” value is reported as 7.7.
For the molecule `CSc1nc2n(n1)C(c1ccccc1)C([N+](=O)[O-])=C(C)N2` (centres unmarked) [Compound 6b, 5-Methyl-2-methylthio-6-nitro-7-phenyl-4,7-dihydro-1,2,4-triazolo[1,5-a]pyrimidine], the “Cytotoxicity index IC50 ± SE, Hos” value in the assay with Hos cells is recorded as 92.03 ± 3.08 µM. In the assay with Hek-293 cells, the “Cytotoxicity index IC50 ± SE, Hek-293” value came to 237.40 ± 11.99 µM. Besides, the “Cytotoxicity index IC50 ± SE, A-172” value in the assay with A-172 cells was determined as 71.03 ± 2.07 µM. Further, the “Cytotoxicity index IC50 ± SE, Rd” value with Rd cells is 110.11 ± 4.93 µM.
Regarding `CN[C@@H]1C[C@H]2O[C@@](C)([C@@H]1OC)n1c3ccccc3c3c4c(c5c6ccccc6n2c5c31)C(=O)NC4` [Staurosporine, reference compound], at human recombinant CK2α1, the “Hill Coefficient” value is −0.974 and the inhibition at 50 µM is 72.3 ± 6.39%.
For `N.N.[Cl][Pt][Cl]` [cPt, Cisplatin, reference compound], in the assay with Hos cells, the “Cytotoxicity index IC50 ± SE, Hos” value is 2.36 ± 0.12 µM and the “Selectivity ratio SR (HOS)” value is reported as 1.9. For the same molecule, the “Cytotoxicity index IC50 ± SE, Hek-293” value with Hek-293 cells was found to be 4.41 ± 0.24 µM. In addition, in the assay with A-172 cells, the “Cytotoxicity index IC50 ± SE, A-172” value was 3.64 ± 0.21 µM and the “Selectivity ratio SR (A-172)” value is on record as 1.2. Besides, in the assay with Rd cells, the “Cytotoxicity index IC50 ± SE, Rd” value is given as 4.99 ± 0.31 µM and the “Selectivity ratio SR (RD)” value is recorded as 0.9.
